These results are taken from US9121026B2 (priority 2004, dated 2015).

For orientation: Inhibition of growth means how much of the control response was suppressed.

Common to all, as to type: cell-based, Saccharomyces cerevisiae
Test [1] concerns RE700A tok1::PPDR5long-HXT7. In words: Growth of RE700A tok1::PPDR5long-HXT7 in the presence of 2-DG. Particulars: RE700A tok1::PPDR5long-HXT7, liquid media, 20 h 28° C. The procedure: (§1) (B) Relative growth of RE700A tok1::PPDR5long-HXT7, RE700A Δpdr1 tok1::PPDR5long-HXT7, RE700A Δpdr3 tok1::PPDR5long-HXT7 and RE700A Δpdr1,3 tok1::PPDR5long-HXT7 in the presence of 2-DG. Cells were incubated for 20 h at 28° C. with 2-DG at different concentrations. […] The standard error of the mean (n=5) is indicated.

Test [2] relates to RE700A Δpdr3 tok1::PPDR5long-HXT7. In words: Growth of RE700A Δpdr3 tok1::PPDR5long-HXT7 in the presence of 2-DG. Particulars: RE700A Δpdr3 tok1::PPDR5long-HXT7, 20 h 28° C. Here is the method:
as §1

Test [3] relates to RE700A i PPMA1-HXT7 (ICFP). In words: Growth inhibition of ICFP by 2-DG. Particulars: 20 h 28° C., maltose, in percent of growth of RE700A. The procedure: (B) RE700A, ICFP and IT[PDR] were incubated 20 h at 28° C. with maltose (2% (w/v)) as the sole carbon source and the indicated 2-DG concentrations. The optical density was measured at 600 nm every 15 minutes and the integral under the growth curve is calculated. Inhibition of growth of ICFP and IT[PDR] is shown in percent of growth of RE700A. Growth of ICFP was inhibited by 15% at 0.01% (w/v) 2-DG, by 74% at 0.03% (w/v) 2-DG, by 80% at 0.05% (w/v) 2-DG and by 83% at 0.1% (w/v) 2-DG. Growth of IT[PDR] was inhibited by 21% at 0.01% (w/v) 2-DG, by 79% at 0.03% (w/v) 2-DG, by 88% at 0.05% (w/v) 2-DG and by 96% in 0.1% (w/v) 2-DG.
Strain growth: The growth of the strains in liquid medium was determined by measuring the optical density at 600 nm. To obtain growth curves, measurements were performed every 15 min. Alternatively, start and endpoint (after 12-16 h) measurements were carried out.

Test [4] deals with RE700A Δpdr1 tok1::PPDR5-HXT7. In words: Growth inhibition of RE700A Δpdr1 tok1::PPDR5-HXT7 by 2-DG. Particulars: RE700A Δpdr1 tok1::PPDR5-HXT7, maltose, 20 h 28° C. Here is the method: (A) Growth inhibition of RE700A i PPDR5-HXT7 (IT[PDR]), RE700A Δpdr1 tok1::PPDR5-HXT7, RE700A Δpdr3 tok1::PPDR5-HXT7 and RE700A Δpdr1,pdr3 tok1::PPDR5-HXT7 at increasing 2-DG concentrations. RE700A i PPDR5-HXT7 (IT[PDR]), RE700A Δpdr1 tok1::PPDR5-HXT7, RE700A Δpdr3 tok1::PPDR5-HXT7 and RE700A Δpdr1,pdr3 tok1::PPDR5-HXT7 were incubated 20 h at 28° C. with Maltose (2% (w/v)) as the sole carbon source and 2-DG concentrations as indicated. The optical density was measured at 600 nm every 15 minutes and the integral under the growth curve was calculated. Inhibition of growth caused by 2-DG is shown in percent. The growth of the strain RE700A tok1::PPDR5-HXT7 (IT[PDR]) was inhibited by 50% at 0.02% (w/v) 2-DG. Growth of the strains RE700A Δpdr1 tok1::PPDR5-HXT7 and RE700A Δpdr3 tok1::PPDR5-HXT7 was inhibited by 50% at 0.026% (w/v) 2-DG.
All strains expressing HXT7 were tested for sensitivity to 2-DG. The strains expressing GFP under the control of PPDR5 were additionally analysed for GFP fluorescence in comparison to RE700Ae PPDR5-GFP (strain CQ[PDR]).

Test [5] concerns RE700A i PCDR2-HXT7 (IT[CDR2]). The test can be described thus: Growth inhibition of IT[CDR2] by 2-DG. To be noted: 20 h 28° C., maltose, regarding growth in the absence of 2-DG. Here is the method: FIG. 8: Growth inhibition of RE700A and IT[CDR2] by 2-DG. RE700A and IT[CDR2] were incubated for 20 h at 28° C. with maltose (2% (w/v)) as the sole carbon source and increasing 2-DG concentrations as indicated. The optical density was measured at 600 nm every 15 minutes and the integral under the growth curve was calculated. Inhibition of growth is shown in percent regarding growth in the absence of 2-DG. Growth of IT[CDR2] was inhibited by 30% at a 2-DG concentration of 0.1% (w/v), by 79% at a 2-DG concentration of 1% (w/v), by 89% at a 2-DG concentration of 2% (w/v), by 91% at a 2-DG concentration of 3% (w/v).
(4) Integrated screening system for inhibitors of PCDR2: S. cerevisiae strain RE700A was genetically modified as described in Examples 1 and 2 to yield strain IT[CDR2], chromosomally expressing HXT7 under the control of the promoter of CDR2 (PCDR2) (for the complete genotype see Table 1). The inhibition of growth of IT[CDR2] by 2-DG was tested. The growth of this strain was inhibited by 50% at a 2-DG concentration of 1% (w/v) and by 80% at a 2-DG concentration of 2% (w/v) (FIG. 8).

The subject of test [6] is RE700A Δpdr1,3 tok1::PPDR5long-HXT7. The test can be described thus: Growth of RE700A Δpdr1,3 tok1::PPDR5long-HXT7 in the presence of 2-DG. The procedure: as §1

Structures are written as SMILES.

With `O=CC[C@@H](O)[C@H](O)[C@H](O)CO` [2-DG, 2-deoxy-glucose], the “2-DG concentration for 50% growth inhibition” value in test [1] was 0,025 % (w/v); in test [2], 0.029 % (w/v); in test [4], 0.026 % (w/v); in test [6] (RE700A Δpdr1,3 tok1::PPDR5long-HXT7, liquid media, 20 h 28° C.) it was 0.6 % (w/v). In addition, the Inhibition of growth in test [3] (0.01% (w/v) 2-DG) is on record as 15%; in test [3] (0.03% (w/v) 2-DG) it was 74%; in test [3] (0.05% (w/v) 2-DG) it was 80%; in test [3] (0.1% (w/v) 2-DG) it was 83%; in test [5] (0.1% (w/v) 2-DG) it was 30%; in test [5] (3% (w/v) 2-DG) it was 91%. For the same compound, in test [6] (RE700A Δpdr1,3 tok1::PPDR5long-HXT7, 20 h 28° C., n=5), the “Sensitivity to 2-DG compared with the other PPDR5long-HXT7 strains” value is reported as “far less sensitive”. The “Increase of tolerance to 2-DG” value in test [6] (RE700A Δpdr1,3 tok1::PPDR5long-HXT7 versus RE700A Δpdr1 tok1::PPDR5long-HXT7) is roughly 10 fold.
